US20020137929A1, “1 - (3-heterocyclylphenyl) isothiourea, -isourea, -guanidine and -amidine herbicidal agents” (Intellectual Property Department, BASF Aktiengesellschaft, priority 1998, published 2002)

Key:
[1] = system: TRZAWR (Wheat, Winter, cv Riband); test: Preemergence herbicidal evaluation; assay type: in vivo, Triticum aestivum; conditions: rated 4-5 weeks after treatment
Outline: (§1)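 Sown cups got a single aqueous acetone spray of test compound (roughly 0.0156–0.500 kg/ha) before seedlings emerged. Evaluation, 4–5 weeks on, used a 0–9 visual scale covering plant stand, vigor, size, malformation, chlorosis and general appearance compared with controls.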

[2] = system: IPOHE (Morningglory, Ivyleaf); test: Preemergence herbicidal evaluation; assay type: in vivo, Ipomoea hederacea; conditions: rated 4-5 weeks after treatment
Outline: as §1

[3] = system: ABUTH (Velvetleaf); test: Postemergence herbicidal evaluation; assay type: in vivo, Abutilon theophrasti; conditions: postemergence
Outline: (§2)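 ~2-wk seedlings; postemergence spray, 40 psi; vehicle 1:1 acetone:water + 0.5% Tween 20; rate ≈0.0156–0.500 kg/ha; greenhouse hold; scored 4–5 wk after treatment, 0–9 scale vs control; repeat tests averaged.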

[4] = system: CYPIR (Rice Flatsedge); test: Preemergence weed control under flooded paddy conditions; assay type: in vivo, Cyperus iria; conditions: rated 3-4 weeks after treatment
Outline: (§3)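 First, seeds or propagules go into the top 0.5 cm of silt loam; next, water is held 1.5 to 3 cm over the soil; then compound (50/50 acetone/water) is pipetted into it at about 0.0313 to 0.500 kg/ha; finally plants are rated visually 0-9 after three to four weeks.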

[5] = system: MOOVA (Monochoria); test: as above; assay type: in vivo, Monochoria vaginalis; conditions: rated 3-4 weeks after treatment
Outline: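 Seeds or propagules sown in top 0.5 cm of silt loam soil, flooded 1.5 to 3 cm above surface throughout. Compound in 50/50 v/v aqueous/acetone pipetted into flood water at about 0.0313 to 0.500 kg/ha. Visual 0-9 rating versus control after three to four weeks in greenhouse.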

[6] = system: ECHCG (Barnyardgrass); test: Postemergence herbicidal evaluation; assay type: in vivo, Echinochloa crus-galli; conditions: postemergence
Outline: as §2

[7] = system: ECHORC (Watergrass (Calif.)); test: Preemergence weed control under flooded paddy conditions; assay type: in vivo, Echinochloa oryzoides; conditions: rated 3-4 weeks after treatment
Outline: as §3

[8] = system: SETVI (Foxtail, Green); test: Postemergence herbicidal evaluation; assay type: in vivo, Setaria viridis; conditions: postemergence
Outline: as §2

[9] = system: ZEAMX (Corn, Field); test: Preemergence herbicidal evaluation; assay type: in vivo, Zea mays; conditions: rated 4-5 weeks after treatment
Outline: as §1

[10] = system: ORYSAT (Rice, Tebonnet); test: Postemergence herbicidal evaluation; assay type: in vivo, Oryza sativa, (L.) Tebonnet; conditions: postemergence
Outline: as §2

[11] = system: GALAP (Galium); test: Postemergence herbicidal evaluation; assay type: in vivo, Galium aparine; conditions: postemergence
Outline: as §2

Cn1c(C(F)(F)F)cc(=O)n(-c2cc(N=C3SCC(=O)N3CC(=O)OC3CCCC3)c(Cl)cc2F)c1=O [Compound 120, Cyclopentyl 2-{{2-chloro-5-[3,6-dihydro-3-methyl-2,6-dioxo-4-(trifluoromethyl)-1(2H)-pyrimidinyl]-4-fluorophenyl}imino}-4-oxo-3-thiazolidineacetate]
3.5: herbicidal effect rating, CYPIR ([4]; 0.1250 kg/ha)
5.0: Herbicidal rating ECHCG ([6]; rate 0.0625 kg/ha)
2.0: herbicidal effect rating, CYPIR ([4]; 0.0313 kg/ha) | Herbicidal rating ECHCG ([6]; rate 0.0313 kg/ha) | Herbicidal rating ORYSAT ([10]; rate 0.0156 kg/ha) | Herbicidal rating GALAP ([11]; rate 0.0156 kg/ha)
1.0: Herbicidal rating ECHCG ([6]; rate 0.0156 kg/ha)
4.0: Preemergence herbicidal rating TRZAWR ([1]; rate 0.2500 kg/ha) | Preemergence herbicidal rating IPOHE ([2]; rate 0.1250 kg/ha) | Herbicidal rating SETVI ([8]; rate 0.0156 kg/ha)
8.5: herbicidal effect rating, MOOVA ([5]; 0.0313 kg/ha)
2.5: herbicidal effect rating, CYPIR ([4]; 0.0625 kg/ha) | Herbicidal rating ORYSAT ([10]; rate 0.0313 kg/ha) | Herbicidal rating ORYSAT ([10]; rate 0.0625 kg/ha)
8.0: herbicidal effect rating, ECHORC ([7]; 0.0625 kg/ha)
7.0: herbicidal effect rating, ECHORC ([7]; 0.0313 kg/ha)
9.0: Preemergence herbicidal rating IPOHE ([2]; rate 0.2500 kg/ha) | Herbicidal rating ABUTH ([3]; rate 0.0156 kg/ha) | Herbicidal rating ABUTH ([3]; rate 0.0313 kg/ha) | Herbicidal rating ABUTH ([3]; rate 0.0625 kg/ha) | herbicidal effect rating, CYPIR ([4]; 0.2500 kg/ha) | herbicidal effect rating, MOOVA ([5]; 0.0625 kg/ha) | herbicidal effect rating, MOOVA ([5]; 0.1250 kg/ha) | herbicidal effect rating, MOOVA ([5]; 0.2500 kg/ha) | herbicidal effect rating, ECHORC ([7]; 0.1250 kg/ha) | herbicidal effect rating, ECHORC ([7]; 0.2500 kg/ha) | Herbicidal rating SETVI ([8]; rate 0.0313 kg/ha) | Herbicidal rating SETVI ([8]; rate 0.0625 kg/ha)
0.0: Preemergence herbicidal rating TRZAWR ([1]; rate 0.0156 kg/ha) | Preemergence herbicidal rating TRZAWR ([1]; rate 0.0313 kg/ha) | Preemergence herbicidal rating TRZAWR ([1]; rate 0.0625 kg/ha) | Preemergence herbicidal rating TRZAWR ([1]; rate 0.1250 kg/ha) | Preemergence herbicidal rating IPOHE ([2]; rate 0.0156 kg/ha) | Preemergence herbicidal rating IPOHE ([2]; rate 0.0313 kg/ha) | Preemergence herbicidal rating IPOHE ([2]; rate 0.0625 kg/ha) | Preemergence herbicidal rating ZEAMX ([9]; rate 0.0156 kg/ha) | Preemergence herbicidal rating ZEAMX ([9]; rate 0.0313 kg/ha) | Preemergence herbicidal rating ZEAMX ([9]; rate 0.0625 kg/ha) | Preemergence herbicidal rating ZEAMX ([9]; rate 0.1250 kg/ha)
3.0: Preemergence herbicidal rating ZEAMX ([9]; rate 0.2500 kg/ha) | Herbicidal rating GALAP ([11]; rate 0.0313 kg/ha) | Herbicidal rating GALAP ([11]; rate 0.0625 kg/ha)

CCOC(=O)CN1C(=O)C(C(=O)OC)SC1=Nc1cc(-n2c(=O)cc(C(F)(F)F)n(C)c2=O)c(F)cc1Cl (stereo not drawn) [Compound 128, 5-Carboxy-2-{{2-chloro-5-[3,6-dihydro-3-methyl-2,6-dioxo-4-(trifluoromethyl)-1(2H)-pyrimidinyl]-4-fluorophenyl}imino}-4-oxo-3-thiazolidineacetic acid, 3-ethyl methyl ester]
9.0: Preemergence herbicidal rating IPOHE ([2]; rate 0.1250 kg/ha) | Herbicidal rating ABUTH ([3]; rate 0.0313 kg/ha) | Herbicidal rating ABUTH ([3]; rate 0.0625 kg/ha) | herbicidal effect rating, MOOVA ([5]; 0.1250 kg/ha) | herbicidal effect rating, MOOVA ([5]; 0.2500 kg/ha) | herbicidal effect rating, ECHORC ([7]; 0.2500 kg/ha)
7.0: Preemergence herbicidal rating IPOHE ([2]; rate 0.2500 kg/ha) | herbicidal effect rating, MOOVA ([5]; 0.0625 kg/ha) | herbicidal effect rating, ECHORC ([7]; 0.0625 kg/ha) | herbicidal effect rating, ECHORC ([7]; 0.1250 kg/ha)
5.0: herbicidal effect rating, ECHORC ([7]; 0.0313 kg/ha)
0.0: Preemergence herbicidal rating TRZAWR ([1]; rate 0.0156 kg/ha) | Preemergence herbicidal rating TRZAWR ([1]; rate 0.0313 kg/ha) | Preemergence herbicidal rating TRZAWR ([1]; rate 0.0625 kg/ha) | Preemergence herbicidal rating TRZAWR ([1]; rate 0.1250 kg/ha) | Preemergence herbicidal rating TRZAWR ([1]; rate 0.2500 kg/ha) | Preemergence herbicidal rating IPOHE ([2]; rate 0.0156 kg/ha) | Preemergence herbicidal rating IPOHE ([2]; rate 0.0313 kg/ha) | herbicidal effect rating, CYPIR ([4]; 0.0313 kg/ha) | Preemergence herbicidal rating ZEAMX ([9]; rate 0.0156 kg/ha) | Preemergence herbicidal rating ZEAMX ([9]; rate 0.0313 kg/ha) | Preemergence herbicidal rating ZEAMX ([9]; rate 0.0625 kg/ha) | Preemergence herbicidal rating ZEAMX ([9]; rate 0.1250 kg/ha) | Preemergence herbicidal rating ZEAMX ([9]; rate 0.2500 kg/ha)
3.0: Herbicidal rating GALAP ([11]; rate 0.0625 kg/ha)
1.0: Herbicidal rating ECHCG ([6]; rate 0.0156 kg/ha) | Herbicidal rating ECHCG ([6]; rate 0.0625 kg/ha) | Herbicidal rating SETVI ([8]; rate 0.0156 kg/ha) | Herbicidal rating SETVI ([8]; rate 0.0313 kg/ha) | Herbicidal rating GALAP ([11]; rate 0.0156 kg/ha) | Herbicidal rating GALAP ([11]; rate 0.0313 kg/ha)
2.5: Herbicidal rating ORYSAT ([10]; rate 0.0625 kg/ha)
6.0: Herbicidal rating ABUTH ([3]; rate 0.0156 kg/ha) | herbicidal effect rating, MOOVA ([5]; 0.0313 kg/ha)
1.5: Herbicidal rating ORYSAT ([10]; rate 0.0156 kg/ha)
2.0: Herbicidal rating ECHCG ([6]; rate 0.0313 kg/ha) | Herbicidal rating ORYSAT ([10]; rate 0.0313 kg/ha)
4.0: Preemergence herbicidal rating IPOHE ([2]; rate 0.0625 kg/ha) | herbicidal effect rating, CYPIR ([4]; 0.0625 kg/ha) | herbicidal effect rating, CYPIR ([4]; 0.1250 kg/ha) | herbicidal effect rating, CYPIR ([4]; 0.2500 kg/ha) | Herbicidal rating SETVI ([8]; rate 0.0625 kg/ha)

CC(C)COC(=O)CN1C(=O)CSC1=Nc1cc(-n2c(=O)cc(C(F)(F)F)n(C)c2=O)c(F)cc1Cl [Compound 121, Isobutyl 2-{{2-chloro-5-[3,6-dihydro-3-methyl-2,6-dioxo-4-(trifluoromethyl)-1(2H)-pyrimidinyl]-4-fluorophenyl}imino}-4-oxo-3-thiazolidineacetate]
7.0: Preemergence herbicidal rating TRZAWR ([1]; rate 0.1250 kg/ha) | Preemergence herbicidal rating ZEAMX ([9]; rate 0.1250 kg/ha)
9.0: Preemergence herbicidal rating IPOHE ([2]; rate 0.2500 kg/ha) | Herbicidal rating ABUTH ([3]; rate 0.0156 kg/ha) | Herbicidal rating ABUTH ([3]; rate 0.0313 kg/ha) | Herbicidal rating ABUTH ([3]; rate 0.0625 kg/ha) | herbicidal effect rating, MOOVA ([5]; 0.0313 kg/ha) | herbicidal effect rating, MOOVA ([5]; 0.0625 kg/ha) | herbicidal effect rating, MOOVA ([5]; 0.1250 kg/ha) | herbicidal effect rating, MOOVA ([5]; 0.2500 kg/ha) | Herbicidal rating SETVI ([8]; rate 0.0625 kg/ha)
8.0: Preemergence herbicidal rating TRZAWR ([1]; rate 0.2500 kg/ha) | herbicidal effect rating, CYPIR ([4]; 0.1250 kg/ha) | herbicidal effect rating, CYPIR ([4]; 0.2500 kg/ha) | Herbicidal rating SETVI ([8]; rate 0.0156 kg/ha) | Herbicidal rating SETVI ([8]; rate 0.0313 kg/ha) | Preemergence herbicidal rating ZEAMX ([9]; rate 0.2500 kg/ha)
5.0: herbicidal effect rating, ECHORC ([7]; 0.0625 kg/ha)
3.0: Preemergence herbicidal rating TRZAWR ([1]; rate 0.0625 kg/ha) | Preemergence herbicidal rating IPOHE ([2]; rate 0.0625 kg/ha) | Herbicidal rating ORYSAT ([10]; rate 0.0625 kg/ha) | Herbicidal rating GALAP ([11]; rate 0.0625 kg/ha)
2.0: Preemergence herbicidal rating TRZAWR ([1]; rate 0.0313 kg/ha) | Herbicidal rating ORYSAT ([10]; rate 0.0156 kg/ha)
4.0: Preemergence herbicidal rating IPOHE ([2]; rate 0.1250 kg/ha) | herbicidal effect rating, CYPIR ([4]; 0.0313 kg/ha) | herbicidal effect rating, CYPIR ([4]; 0.0625 kg/ha) | herbicidal effect rating, ECHORC ([7]; 0.0313 kg/ha) | Preemergence herbicidal rating ZEAMX ([9]; rate 0.0313 kg/ha)
6.0: herbicidal effect rating, ECHORC ([7]; 0.1250 kg/ha) | herbicidal effect rating, ECHORC ([7]; 0.2500 kg/ha) | Preemergence herbicidal rating ZEAMX ([9]; rate 0.0625 kg/ha)
0.0: Preemergence herbicidal rating TRZAWR ([1]; rate 0.0156 kg/ha) | Preemergence herbicidal rating IPOHE ([2]; rate 0.0156 kg/ha) | Preemergence herbicidal rating IPOHE ([2]; rate 0.0313 kg/ha) | Herbicidal rating ECHCG ([6]; rate 0.0156 kg/ha) | Herbicidal rating ECHCG ([6]; rate 0.0313 kg/ha) | Herbicidal rating ECHCG ([6]; rate 0.0625 kg/ha) | Preemergence herbicidal rating ZEAMX ([9]; rate 0.0156 kg/ha) | Herbicidal rating GALAP ([11]; rate 0.0156 kg/ha) | Herbicidal rating GALAP ([11]; rate 0.0313 kg/ha)
2.5: Herbicidal rating ORYSAT ([10]; rate 0.0313 kg/ha)
